Laboratory results published in publication PMC9945734 (BMC Medicine, 2023).
“And” between values parts separate entries of the source, which are not always exact repeats. Equal values may be shown once.

Tested on: PC-3-KQ and PC-3-KR cells
Assay: RNA-sequencing and differential gene expression
Format: cell-based, human
Parameters: CEP19 tpm_KQ_NTZ / CCNA1 tpm_KQ_NTZ / BTN3A3 tpm_KQ_NTZ / CAPSL tpm_KQ_NTZ / CELF3 tpm_KQ_NTZ / C5orf63 tpm_KQ_NTZ / tpm MSMP / tpm MYH7B / tpm CACNG8 / CNTNAP3B tpm_KQ_NTZ / IL21R tpm_KQ_NTZ / CYP8B1 tpm_KQ_NTZ / C2orf78 tpm_KQ_NTZ / CALB1 tpm_KQ_NTZ / COL4A3 tpm_KQ_NTZ / CFB tpm_KQ_NTZ / PFKFB1 tpm_KQ_NTZ / BTBD11 tpm_KQ_NTZ: scale not given here
Settings: RNA-Seq
[1] = PC-3-KQ cells with NTZ, replicates NTZ1-3, listed as NTZ

## CC(=O)Oc1ccccc1C(=O)Nc1ncc([N+](=O)[O-])s1 [Nitazoxanide]
[1]
  tpm DMPK: 0.419 and 0.3493 and 0.1665
  tpm DRP2: -0.6676 and -1.3 and -0.607
  tpm ECM2: -0.5146 (2×) and 0.2506
  tpm FAM186B: -0.5789 and -0.1828 and -0.4779
  tpm FER1L6: -0.0478 and 0.008832 and -0.09563
  tpm FLT1: 0.161 and -0.1482 and -0.7906
  tpm FSD2: -0.9288 and -1.378 and -0.8049
  tpm FTH1: 1.05 and 1.051 and 1.128
  tpm FXYD3: -0.3733 and -0.2655 and -0.4971
  tpm GALNT12: 0.1641 and 0.2605 and 0.1597
  tpm GRAMD2A: -1.217 and -0.8334 and -0.5772
  tpm HID1: 1.101 and 0.7299 and 0.9267
  tpm HPSE2: -0.4281 and -0.1645 and -0.06191
  tpm IDO1: -0.05198 and -0.1635 and 0.07694
  tpm IGDCC4: 1.025 and 0.5822 and 0.3088
  tpm INHBA: -0.4046 and -0.5562 and -0.8145
  tpm INHBB: 0.08661 and -0.02356 and -0.07924
  tpm KIAA1755: -0.4724 and -0.3852 and -0.1722
  tpm KLHDC7B: 1.013 and 1.073 and 1.158
  tpm LOC105374299: 0.8275 and 1.276 and 1.486
  tpm LOC107987158: 0.1622 and -0.3121 and -1.443
  tpm LONRF2: 0.1017 (2×) and -0.7266
  tpm MAP7D3: 0.1661 and 0.1563 and -0.001507
  tpm MEF2C: 0.3074 (2×) and -0.8164
  tpm MEOX1: -0.388 and -0.5893 and -0.8851
  tpm MINAR1: 1.487 and 0.4714 and 0.64
  tpm MSMP: -0.1946 and -0.01672 and -0.03466
  tpm MUC4: 0.5142 and 1.164 and 1.212
  tpm MYH7B: -0.4262 and -0.2568 and 0.1543
  tpm PDGFRL: 0.618 and 0.4346 and 0.4486
  tpm PLEKHA7: -0.3096 and -0.2197 and -0.3271
  tpm PLEKHG1: -0.07347 and -0.05792 and -0.2
  tpm PRRT4: 0.01578 and 0.2412 and 0.04865
  tpm RORC: 0.6069 and 0.189 and 1.342
  tpm RP1L1: -0.07855 and -0.3562 and -1.072
  tpm RPP25: 0.2387 and 0.2331 and 0.2609
  tpm SAT1: 0.7632 and 0.7179 and 0.7837
  tpm SAXO2: -1.3 and 0.5697 and 0.468
  tpm SERPINA5: 0.2889 and 0.09986 and -0.2457
  tpm SERPINB3: -1.23 and -0.7997 and -0.9984
  tpm SERPINF2: 0.3503 and 0.1655 and 0.444
  tpm SGK3: -0.2978 and 0.6129 and 0.5003
  tpm SLC22A4: -0.6184 and -1.014
  tpm SLFN11: -0.5865 and -0.5524 (2×)
  tpm SRPX: 0.5121 and 0.498 and 0.6168
  tpm STARD4: 0.9661 and 0.7143
  tpm SVEP1: -0.8267 and -1.268 and -1.176
  tpm TBX2: 0.468 and 0.2574 and 0.908
  tpm TCN1: 0.4136 and 0.08826 and 0.5034
  tpm TNF: 0.3176 and 0.1804
  tpm TNFRSF6B: -0.5827 and 0.1186 and -0.2431
  tpm TNFSF14: 1.093 and 1.162 and 1.079
  tpm TRIM31: -0.6801 and -0.02951 and -0.5211
  tpm UGT2B7: -0.4066 and -0.3815 and -0.4168
  tpm XKRX: -0.4846 and 0.05471 and 0.3317
  tpm ZNF28: 0.116 and -1.142 and -0.2155
  tpm ZNF302: -0.4799 and 0.1803 and -0.08669
PC-3-KQ cells
  AADACL3 Change (KQ-Control vs KQ-NTZ): DOWN
  AADACL3 logFC (KQ-Control vs KQ-NTZ): -1.5511
  ABCA1 Change (KQ-Control vs KQ-NTZ): DOWN
  ABCA1 logFC (KQ-Control vs KQ-NTZ): -1.1023
  ABCB4 Change (KQ-Control vs KQ-NTZ): DOWN
  ABCB4 logFC (KQ-Control vs KQ-NTZ): -1.0876
  ADORA1 Change (KQ-Control vs KQ-NTZ): DOWN
  ADORA1 logFC (KQ-Control vs KQ-NTZ): -0.6297
  ANKRD36C Change (KQ-Control vs KQ-NTZ): DOWN
  ANKRD36C logFC (KQ-Control vs KQ-NTZ): -0.823
  ANKRD63 Change (KQ-Control vs KQ-NTZ): DOWN
  ANKRD63 logFC (KQ-Control vs KQ-NTZ): -0.8191
  ANXA8L1 Change (KQ-Control vs KQ-NTZ): DOWN
  ANXA8L1 logFC (KQ-Control vs KQ-NTZ): -1.2337
  APLN Change (KQ-Control vs KQ-NTZ): DOWN
  APLN logFC (KQ-Control vs KQ-NTZ): -0.8669
  ARL10 Change (KQ-Control vs KQ-NTZ): DOWN
  ARL10 logFC (KQ-Control vs KQ-NTZ): -0.6715
  ARX logFC (KQ-Control vs KQ-NTZ): 0.8688
  ASB2 Change (KQ-Control vs KQ-NTZ): DOWN
  ASB2 logFC (KQ-Control vs KQ-NTZ): -1.5518
  ASRGL1 Change (KQ-Control vs KQ-NTZ): DOWN
  ASRGL1 logFC (KQ-Control vs KQ-NTZ): -0.6209
  BDKRB2 Change (KQ-Control vs KQ-NTZ): DOWN
  BDKRB2 logFC (KQ-Control vs KQ-NTZ): -1.3479
  BRINP2 Change (KQ-Control vs KQ-NTZ): DOWN
  BRINP2 logFC (KQ-Control vs KQ-NTZ): -0.6846
  BTBD11 Change (KQ-Control vs KQ-NTZ): DOWN
  BTBD11 logFC (KQ-Control vs KQ-NTZ): -1.0629
  C2orf78 Change (KQ-Control vs KQ-NTZ): DOWN
  C2orf78 logFC (KQ-Control vs KQ-NTZ): -0.8606
  CACNG8 Change (KQ-Control vs KQ-NTZ): DOWN
  CACNG8 logFC (KQ-Control vs KQ-NTZ): -1.0729
  CAPSL Change (KQ-Control vs KQ-NTZ): DOWN
  CAPSL logFC (KQ-Control vs KQ-NTZ): -0.8068
  CD14 Change (KQ-Control vs KQ-NTZ): DOWN
  CD14 logFC (KQ-Control vs KQ-NTZ): -2.3874
  CEP19 Change (KQ-Control vs KQ-NTZ): DOWN
  CEP19 logFC (KQ-Control vs KQ-NTZ): -0.5995
  CNTNAP3B Change (KQ-Control vs KQ-NTZ): DOWN
  CNTNAP3B logFC (KQ-Control vs KQ-NTZ): -1.4339
  COL4A6 Change (KQ-Control vs KQ-NTZ): DOWN
  COL4A6 logFC (KQ-Control vs KQ-NTZ): -0.6049
  CSF3 Change (KQ-Control vs KQ-NTZ): DOWN
  CSF3 logFC (KQ-Control vs KQ-NTZ): -0.9191
  CXCL5 Change (KQ-Control vs KQ-NTZ): DOWN
  CXCL5 logFC (KQ-Control vs KQ-NTZ): -1.0464
  DEPTOR Change (KQ-Control vs KQ-NTZ): DOWN
  DEPTOR logFC (KQ-Control vs KQ-NTZ): -0.7982
  DMC1 Change (KQ-Control vs KQ-NTZ): DOWN
  DMC1 logFC (KQ-Control vs KQ-NTZ): -0.9749
  DRP2 Change (KQ-Control vs KQ-NTZ): DOWN
  DRP2 logFC (KQ-Control vs KQ-NTZ): -1.0796
  ECM2 Change (KQ-Control vs KQ-NTZ): DOWN
  ECM2 logFC (KQ-Control vs KQ-NTZ): -0.755
  EFCAB6 Change (KQ-Control vs KQ-NTZ): DOWN
  EFCAB6 logFC (KQ-Control vs KQ-NTZ): -0.8325
  FAM43A Change (KQ-Control vs KQ-NTZ): DOWN
  FAM43A logFC (KQ-Control vs KQ-NTZ): -1.1246
  FAM83D Change (KQ-Control vs KQ-NTZ): DOWN
  FAM83D logFC (KQ-Control vs KQ-NTZ): -0.5981
  FAM186B Change (KQ-Control vs KQ-NTZ): DOWN
  FAM186B logFC (KQ-Control vs KQ-NTZ): -0.6856
  FANCI Change (KQ-Control vs KQ-NTZ): DOWN
  FANCI logFC (KQ-Control vs KQ-NTZ): -0.7453
  FANCL Change (KQ-Control vs KQ-NTZ): DOWN
  FANCL logFC (KQ-Control vs KQ-NTZ): -0.6097
  FCGBP Change (KQ-Control vs KQ-NTZ): DOWN
  FCGBP logFC (KQ-Control vs KQ-NTZ): -2.5743
  FLI1 Change (KQ-Control vs KQ-NTZ): DOWN
  FLI1 logFC (KQ-Control vs KQ-NTZ): -0.8219
  FLRT1 Change (KQ-Control vs KQ-NTZ): DOWN
  FLRT1 logFC (KQ-Control vs KQ-NTZ): -0.8174
  FLT1 Change (KQ-Control vs KQ-NTZ): DOWN
  FLT1 logFC (KQ-Control vs KQ-NTZ): -0.8
  FOXI1 Change (KQ-Control vs KQ-NTZ): DOWN
  FOXI1 logFC (KQ-Control vs KQ-NTZ): -1.9605
  FOXP3 Change (KQ-Control vs KQ-NTZ): DOWN
  FOXP3 logFC (KQ-Control vs KQ-NTZ): -1.1132
  FSD2 Change (KQ-Control vs KQ-NTZ): DOWN
  FSD2 logFC (KQ-Control vs KQ-NTZ): -1.2199
  FZD4 Change (KQ-Control vs KQ-NTZ): DOWN
  FZD4 logFC (KQ-Control vs KQ-NTZ): -1.1759
  GBX2 Change (KQ-Control vs KQ-NTZ): DOWN
  GBX2 logFC (KQ-Control vs KQ-NTZ): -0.9793
  GPR19 Change (KQ-Control vs KQ-NTZ): DOWN
  GPR19 logFC (KQ-Control vs KQ-NTZ): -0.6847
  GRAMD2A Change (KQ-Control vs KQ-NTZ): DOWN
  GRAMD2A logFC (KQ-Control vs KQ-NTZ): -1.0971
  H3C1 Change (KQ-Control vs KQ-NTZ): DOWN
  H3C1 logFC (KQ-Control vs KQ-NTZ): -0.9324
  HAS3 Change (KQ-Control vs KQ-NTZ): DOWN
  HAS3 logFC (KQ-Control vs KQ-NTZ): -1.3005
  HPSE2 Change (KQ-Control vs KQ-NTZ): DOWN
  HPSE2 logFC (KQ-Control vs KQ-NTZ): -0.9315
  HSD3B1 Change (KQ-Control vs KQ-NTZ): DOWN
  HSD3B1 logFC (KQ-Control vs KQ-NTZ): -0.7148
  IGF2BP1 Change (KQ-Control vs KQ-NTZ): DOWN
  IGF2BP1 logFC (KQ-Control vs KQ-NTZ): -0.8373
  IGFBP4 Change (KQ-Control vs KQ-NTZ): DOWN
  IGFBP4 logFC (KQ-Control vs KQ-NTZ): -1.0441
  IGSF23 Change (KQ-Control vs KQ-NTZ): DOWN
  IGSF23 logFC (KQ-Control vs KQ-NTZ): -0.7201
